# Laboratory results taken from publication PMC6405326 (ACS chemical neuroscience, 2018).
# Key:
# mouse MOR [1] = biological target: T1, mouse MOR (Mus musculus, UniProt P42866); test: Competitive radioligand binding assay, MOR
# mouse KOR = mouse KOR (Mus musculus, UniProt P33534); test: Competitive radioligand binding assay, KOR
# mouse DOR = mouse DOR (Mus musculus, UniProt P32300); test: Competitive radioligand binding assay, DOR
# [2] = system: KOR-DOR and KOR-MOR heterodimers; conditions: HEK293 cells; cited from earlier work
# [3] = cited from earlier work
# mouse MOR [4] = biological target: T1, mouse MOR; test: [35S]-GTPγS functional assay, MOR-CHO membranes; conditions: for Emax: read-out: MOR [35S]-GTPγS assay % Emax of DAMGO, relative to 3 μM DAMGO; for MOR [35S]-GTPγS assay % Emax of DAMGO: relative to 3 μM DAMGO
# male Swiss Webster mice [5] = test: Warm-water tail immersion assay, antinociceptive effect; conditions: 10 mg/kg s.c., tested 20 min after injection, 56 °C water
# male Swiss Webster mice [6] = test: Warm-water tail immersion assay, antagonism of morphine's antinociceptive effect; conditions: dose-response study, s.c.
SMILES,Ki (mouse MOR [1]),Ki (mouse KOR),Ki (mouse DOR),Activation of KOR-DOR and KOR-MOR heterodimers [2],Antinociception [3],Aversive effects in the conditioned place preference assay [3],Tolerance and dependence [3],EC50 (mouse MOR [4]),MOR [35S]-GTPγS assay EC50 (mouse MOR [4]; mMOR-CHO membranes),Emax (mouse MOR [4]),MOR [35S]-GTPγS assay % Emax of DAMGO (mouse MOR [4]),Antinociceptive effect (% MPE) (male Swiss Webster mice [5]; listed as INTA),Antinociceptive effect (% MPE) (male Swiss Webster mice [5]),"AD50 (95% CL), opioid antagonist effect against morphine (male Swiss Webster mice [6])"
"O=C(N[C@@H]1CC[C@@]2(O)[C@H]3Cc4ccc(O)c5c4[C@@]2(CCN3CC2CC2)[C@H]1O5)c1cc2ccccc2[nH]1 [Compound 1, 17-Cyclopropylmethyl-3,14β-dihydroxy-4,5α-epoxy-6β-(indole-2-carboxamido)morphinan]",0.29 ± 0.04 nM,0.18 nM,1.54 ± 0.47 nM,activated,potent antinociception,no aversive effects,devoid of tolerance and dependence,0.21 ± 0.01 nM,subnanomolar potency,92.4 ± 2.81%,full agonist,potent antinociception,,
"O=C(N[C@@H]1CC[C@@]2(O)[C@H]3Cc4ccc(O)c5c4[C@@]2(CCN3CC2CC2)[C@H]1O5)c1c[nH]c2ccccc12 [Compound 2, 17-Cyclopropylmethyl-3,14β-dihydroxy-4,5α-epoxy-6β-(indole-3-carboxamido)morphinan]",0.19 ± 0.02 nM,,7.17 ± 1.23 nM,,,,,0.22 ± 0.07 nM,,79.5 ± 7.41%,high MOR efficacies,,low % MPE values,
"O=C(N[C@@H]1CC[C@@]2(O)[C@H]3Cc4ccc(O)c5c4[C@@]2(CCN3CC2CC2)[C@H]1O5)c1cccc2[nH]ccc12 [Compound 3, 17-Cyclopropylmethyl-3,14β-dihydroxy-4,5α-epoxy-6β-(indole-4-carboxamido)morphinan]",0.24 ± 0.03 nM,,49.8 ± 12.7 nM,,,,,8.16 ± 4.72 nM,,,,,,
"O=C(N[C@@H]1CC[C@@]2(O)[C@H]3Cc4ccc(O)c5c4[C@@]2(CCN3CC2CC2)[C@H]1O5)c1ccc2[nH]ccc2c1 [Compound 4, 17-Cyclopropylmethyl-3,14β-dihydroxy-4,5α-epoxy-6β-(indole-5-carboxamido)morphinan]",0.26 ± 0.04 nM,0.51 ± 0.04 nM,17.7 ± 4.78 nM,,,,,2.98 ± 1.25 nM,,22.3 ± 3.5%,,,,
"O=C(N[C@@H]1CC[C@@]2(O)[C@H]3Cc4ccc(O)c5c4[C@@]2(CCN3CC2CC2)[C@H]1O5)c1ccc2cc[nH]c2c1 [Compound 5, 17-Cyclopropylmethyl-3,14β-dihydroxy-4,5α-epoxy-6β-(indole-6-carboxamido)morphinan]",0.25 ± 0.04 nM,0.17 ± 0.01 nM,6.23 ± 0.83 nM,,,,,0.19 ± 0.02 nM,,71.8 ± 4.37%,high MOR efficacies,,low % MPE values,
"O=C(N[C@@H]1CC[C@@]2(O)[C@H]3Cc4ccc(O)c5c4[C@@]2(CCN3CC2CC2)[C@H]1O5)c1cccc2cc[nH]c12 [Compound 6, 17-Cyclopropylmethyl-3,14β-dihydroxy-4,5α-epoxy-6β-(indole-7-carboxamido)morphinan]",,0.52 ± 0.09 nM,30.4 ± 9.49 nM,,,,,,,,37.94 ±5.85%,,,
"O=C(Cc1c[nH]c2ccccc12)N[C@@H]1CC[C@@]2(O)[C@H]3Cc4ccc(O)c5c4[C@@]2(CCN3CC2CC2)[C@H]1O5 [Compound 7, 17-Cyclopropylmethyl-3,14β-dihydroxy-4,5α-epoxy-6β-[2-(indol-3-yl)acetamido)morphinan]",0.24 ± 0.03 nM,,37 ± 1.21 nM,,,,,1.44 ± 0.75 nM,,48.3 ± 4.45%,,,,
"O=C(CCc1c[nH]c2ccccc12)N[C@@H]1CC[C@@]2(O)[C@H]3Cc4ccc(O)c5c4[C@@]2(CCN3CC2CC2)[C@H]1O5 [Compound 8, 17-Cyclopropylmethyl-3,14β-dihydroxy-4,5α-epoxy-6β-[3-(indol-3-yl)propanamido)morphinan]",0.17 ± 0.01 nM,0.39 ± 0.05 nM,77.1 ± 28.3 nM,,,,,1.73 ± 1.1 nM,,45.1 ± 5.18%,,,,
"O=C(CCCc1c[nH]c2ccccc12)N[C@@H]1CC[C@@]2(O)[C@H]3Cc4ccc(O)c5c4[C@@]2(CCN3CC2CC2)[C@H]1O5 [Compound 9, 17-Cyclopropylmethyl-3,14β-dihydroxy-4,5α-epoxy-6β-[4-(indol-3-yl)butanamido)morphinan]",0.2 ± 0.03 nM,,25.3 ± 4.34 nM,,,,,1.04 ± 0.17 nM,,,36.29 ±4.11%,,,
"O=C(N[C@H]1CC[C@@]2(O)[C@H]3Cc4ccc(O)c5c4[C@@]2(CCN3CC2CC2)[C@H]1O5)c1cc2ccccc2[nH]1 [Compound 10, 17-Cyclopropylmethyl-3,14β-dihydroxy-4,5α-epoxy-6α-(indole-2-carboxamido)morphinan]",0.36 ± 0.03 nM,0.93 ± 0.13 nM,14.2 ± 2.78 nM,,,,,6.75 ± 3.2 nM,,36.9 ± 2.4%,,,,
"O=C(N[C@H]1CC[C@@]2(O)[C@H]3Cc4ccc(O)c5c4[C@@]2(CCN3CC2CC2)[C@H]1O5)c1c[nH]c2ccccc12 [Compound 11, 17-Cyclopropylmethyl-3,14β-dihydroxy-4,5α-epoxy-6α-(indole-3-carboxamido)morphinan]",0.29 ± 0.04 nM,0.98 ± 0.13 nM,10.5 ± 2.89 nM,,,,,1 ± 0.13 nM,,33.3 ± 3.51%,,,,
"O=C(N[C@H]1CC[C@@]2(O)[C@H]3Cc4ccc(O)c5c4[C@@]2(CCN3CC2CC2)[C@H]1O5)c1cccc2[nH]ccc12 [Compound 12, 17-Cyclopropylmethyl-3,14β-dihydroxy-4,5α-epoxy-6α-(indole-4-carboxamido)morphinan]",0.26 ± 0.04 nM,,9.26 ± 2.83 nM,,,,,4.99 ± 2.19 nM,,,28.90 ±0.95%,,,
"O=C(N[C@H]1CC[C@@]2(O)[C@H]3Cc4ccc(O)c5c4[C@@]2(CCN3CC2CC2)[C@H]1O5)c1ccc2[nH]ccc2c1 [Compound 13, 17-Cyclopropylmethyl-3,14β-dihydroxy-4,5α-epoxy-6α-(indole-5-carboxamido)morphinan]",0.76 ± 0.11 nM,3.45 ± 0.99 nM,26.7 ± 7.72 nM,,,,,1.55 ± 0.08 nM,,32.2 ± 1.26%,,,,
"O=C(N[C@H]1CC[C@@]2(O)[C@H]3Cc4ccc(O)c5c4[C@@]2(CCN3CC2CC2)[C@H]1O5)c1ccc2cc[nH]c2c1 [Compound 14, 17-Cyclopropylmethyl-3,14β-dihydroxy-4,5α-epoxy-6α-(indole-6-carboxamido)morphinan]",0.43 ± 0.05 nM,1.63 ± 0.28 nM,12.8 ± 3.36 nM,,,,,6.06 ± 1.25 nM,,26.6 ± 0.66%,,,,
"O=C(N[C@H]1CC[C@@]2(O)[C@H]3Cc4ccc(O)c5c4[C@@]2(CCN3CC2CC2)[C@H]1O5)c1cccc2cc[nH]c12 [Compound 15, 17-Cyclopropylmethyl-3,14β-dihydroxy-4,5α-epoxy-6α-(indole-7-carboxamido)morphinan]",,,,,,,,,,,,,,2.07 (0.40−10.74) mg/kg
"O=C(Cc1c[nH]c2ccccc12)N[C@H]1CC[C@@]2(O)[C@H]3Cc4ccc(O)c5c4[C@@]2(CCN3CC2CC2)[C@H]1O5 [Compound 16, 17-Cyclopropylmethyl-3,14β-dihydroxy-4,5α-epoxy-6α-[2-(indol-3-yl)acetamido)morphinan]",0.84 ± 0.12 nM,3.14 ± 0.45 nM,9.17 ± 2.67 nM,,,,,4.75 ± 0.31 nM,,34.1 ± 0.97%,,,,
"O=C(CCc1c[nH]c2ccccc12)N[C@H]1CC[C@@]2(O)[C@H]3Cc4ccc(O)c5c4[C@@]2(CCN3CC2CC2)[C@H]1O5 [Compound 17, 17-Cyclopropylmethyl-3,14β-dihydroxy-4,5α-epoxy-6α-[3-(indol-3-yl)propanamido)morphinan]",0.44 ± 0.04 nM,1.36 ± 0.18 nM,25.1 ± 6.83 nM,,,,,2.09 ± 0.19 nM,,41.5 ± 6.14%,,,,
"O=C(CCCc1c[nH]c2ccccc12)N[C@H]1CC[C@@]2(O)[C@H]3Cc4ccc(O)c5c4[C@@]2(CCN3CC2CC2)[C@H]1O5 [Compound 18, 17-Cyclopropylmethyl-3,14β-dihydroxy-4,5α-epoxy-6α-[4-(indol-3-yl)butanamido)morphinan]",0.29 ± 0.04 nM,0.15 ± 0.03 nM,6.73 ± 0.4 nM,,,,,1.89 ± 1.04 nM,,54.9 ± 6.35%,,,,
